Here are results for 17 compounds from US9238656B2, “Imidazo[4,5-b]pyridine derivatives as ALK and JAK modulators for the treatment of proliferative disorders” (priority 2012, dated 2016).

Counter-ions that a name gives are not always drawn.

The target of experiment [1] is baculovirus-expressed ALK (Homo sapiens, UniProt Q9UM73). The experiment is described as follows: ALK kinase inhibition, TRF/ELISA. Type of experiment: biochemical. To be noted: read-out: ALK Potency. The protocol:
Briefly, each 96-well plate was coated with 100 μL/well of 10 μg/mL substrate (GST-PLC-γ) in Tris-buffered saline (TBS). […] The reaction was initiated by adding enzyme (30 ng/mL ALK) and was allowed to proceed at 37° C. for 15 minutes. Detection of the phosphorylated product was performed by adding 100 μL/well of Eu-N1 labeled PT66 antibody (Perkin Elmer #AD0041). […] Data analysis was performed using ActivityBase (IDBS, Guilford, UK). IC50 values were calculated by plotting percent inhibition versus log10 of the concentration of compound and fitting to the nonlinear regression sigmoidal dose-response (variable slope) equation in XLFit (IDBS, Guilford, UK).
(In general: ELISA stands for enzyme-linked immunosorbent assay.)

The target of experiment [2] is baculovirus-expressed JAK2 kinase (Homo sapiens, UniProt O60674). The experiment is described as follows: biochemical. To be noted: 0.2 μM ATP; read-out: JAK2 Potency. On the procedure: Compounds were tested for their ability to inhibit the kinase activity of baculovirus-expressed JAK2 kinase using the time-resolved fluorescence (TRF) detection system. […] The plates were coated with 100 μL/well of 10 μg/mL Neutravidin (Pierce #31000, Rockford, Ill.) in TBS at 37° C. for 2 h, followed by 100 μL/well of 1 μg/mL 15-mer peptide substrate (biotinyl-amino-hexanoyl-[…]-amide, Infinity Biotech Research and Resource, Aston, Pa.) at 37° C. for 1 h. […] Enzyme (15 ng/mL JAK2) was added and the reaction was allowed to proceed at room temperature for 20 min. […] Inhibition data were analyzed using ActivityBase (IDBS, Guilford, UK). IC50 values were calculated by plotting percent inhibition versus log10 of the concentration of compound and fitting to the nonlinear regression sigmoidal dose-response (variable slope) equation in XLFit (IDBS, Guilford, UK).
Sequence of baculovirus-expressed JAK2 kinase (O60674 whole entry): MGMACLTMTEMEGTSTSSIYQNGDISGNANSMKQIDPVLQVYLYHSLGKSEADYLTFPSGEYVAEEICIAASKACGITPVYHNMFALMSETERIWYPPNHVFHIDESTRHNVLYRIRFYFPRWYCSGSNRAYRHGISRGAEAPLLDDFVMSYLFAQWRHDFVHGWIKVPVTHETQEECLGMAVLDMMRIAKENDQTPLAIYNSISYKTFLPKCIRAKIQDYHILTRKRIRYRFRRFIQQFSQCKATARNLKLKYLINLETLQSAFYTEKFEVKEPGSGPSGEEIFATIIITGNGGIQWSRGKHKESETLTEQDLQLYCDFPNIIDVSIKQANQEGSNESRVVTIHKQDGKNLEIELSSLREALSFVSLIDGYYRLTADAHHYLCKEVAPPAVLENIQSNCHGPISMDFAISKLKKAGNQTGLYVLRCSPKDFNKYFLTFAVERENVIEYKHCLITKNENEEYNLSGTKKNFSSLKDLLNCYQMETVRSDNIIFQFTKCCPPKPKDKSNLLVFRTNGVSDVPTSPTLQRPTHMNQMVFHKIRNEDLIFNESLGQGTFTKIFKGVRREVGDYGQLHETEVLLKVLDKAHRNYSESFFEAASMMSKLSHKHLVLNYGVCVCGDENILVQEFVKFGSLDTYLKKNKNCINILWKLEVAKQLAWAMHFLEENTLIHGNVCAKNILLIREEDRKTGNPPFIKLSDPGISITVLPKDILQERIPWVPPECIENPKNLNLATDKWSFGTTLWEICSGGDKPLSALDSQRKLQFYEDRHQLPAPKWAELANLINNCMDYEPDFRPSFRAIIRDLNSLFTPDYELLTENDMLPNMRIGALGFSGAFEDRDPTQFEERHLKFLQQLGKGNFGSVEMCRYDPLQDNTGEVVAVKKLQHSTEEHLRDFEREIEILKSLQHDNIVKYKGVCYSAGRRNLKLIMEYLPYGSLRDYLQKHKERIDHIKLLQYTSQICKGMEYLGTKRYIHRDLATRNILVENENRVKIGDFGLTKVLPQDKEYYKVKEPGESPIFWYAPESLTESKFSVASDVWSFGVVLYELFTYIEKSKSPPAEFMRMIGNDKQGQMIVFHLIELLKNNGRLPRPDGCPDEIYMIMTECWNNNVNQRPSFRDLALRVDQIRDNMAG

Sequence of baculovirus-expressed ALK (Q9UM73 19-1620): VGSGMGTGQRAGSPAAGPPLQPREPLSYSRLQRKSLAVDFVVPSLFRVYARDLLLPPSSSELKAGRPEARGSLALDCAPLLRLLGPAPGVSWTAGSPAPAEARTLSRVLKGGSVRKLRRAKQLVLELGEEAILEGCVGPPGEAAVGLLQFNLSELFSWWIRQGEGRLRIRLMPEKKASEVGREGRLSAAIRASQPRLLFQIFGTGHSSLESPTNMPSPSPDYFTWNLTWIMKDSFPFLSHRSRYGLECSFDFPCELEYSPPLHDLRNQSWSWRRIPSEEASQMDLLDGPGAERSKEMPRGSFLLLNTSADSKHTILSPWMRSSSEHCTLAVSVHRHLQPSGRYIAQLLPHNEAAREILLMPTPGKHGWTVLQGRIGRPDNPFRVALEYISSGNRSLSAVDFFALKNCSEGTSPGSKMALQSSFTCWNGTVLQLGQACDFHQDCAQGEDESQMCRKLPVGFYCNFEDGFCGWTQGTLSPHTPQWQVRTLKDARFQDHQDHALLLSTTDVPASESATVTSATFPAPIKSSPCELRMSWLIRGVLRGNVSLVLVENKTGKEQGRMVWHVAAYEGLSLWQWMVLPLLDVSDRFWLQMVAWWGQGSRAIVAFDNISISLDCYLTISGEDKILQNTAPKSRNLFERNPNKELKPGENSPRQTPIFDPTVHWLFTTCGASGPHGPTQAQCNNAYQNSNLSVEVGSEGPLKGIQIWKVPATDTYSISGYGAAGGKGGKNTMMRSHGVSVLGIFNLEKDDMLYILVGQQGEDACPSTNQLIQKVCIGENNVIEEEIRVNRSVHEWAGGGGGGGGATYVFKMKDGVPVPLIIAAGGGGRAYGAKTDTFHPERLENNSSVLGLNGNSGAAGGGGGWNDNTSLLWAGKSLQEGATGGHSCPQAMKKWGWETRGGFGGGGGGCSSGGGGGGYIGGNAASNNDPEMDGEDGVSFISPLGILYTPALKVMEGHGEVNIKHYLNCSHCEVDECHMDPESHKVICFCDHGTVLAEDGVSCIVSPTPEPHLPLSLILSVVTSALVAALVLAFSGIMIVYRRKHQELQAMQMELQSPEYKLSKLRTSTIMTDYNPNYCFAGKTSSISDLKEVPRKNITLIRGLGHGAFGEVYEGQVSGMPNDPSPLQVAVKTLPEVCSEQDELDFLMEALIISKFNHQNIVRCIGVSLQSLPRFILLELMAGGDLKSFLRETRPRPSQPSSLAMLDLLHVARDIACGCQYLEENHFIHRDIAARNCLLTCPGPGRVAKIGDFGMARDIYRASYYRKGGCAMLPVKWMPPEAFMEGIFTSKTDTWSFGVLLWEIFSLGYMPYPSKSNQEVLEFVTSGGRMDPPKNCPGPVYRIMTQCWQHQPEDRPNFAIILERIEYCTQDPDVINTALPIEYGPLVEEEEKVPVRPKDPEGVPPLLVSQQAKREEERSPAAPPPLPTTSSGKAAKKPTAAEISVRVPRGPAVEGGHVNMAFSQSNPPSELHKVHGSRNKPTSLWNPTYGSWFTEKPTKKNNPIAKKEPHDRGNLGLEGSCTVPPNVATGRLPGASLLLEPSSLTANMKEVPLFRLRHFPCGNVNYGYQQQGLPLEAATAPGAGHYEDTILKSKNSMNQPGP

For the compound `Cc1cc(N2CCOCC2)ccc1-c1nc2c(N[C@H]3[C@@H](C(N)=O)[C@@H]4C=C[C@H]3C4)c(Br)cnc2[nH]1` [Compound CXXX, (1S,2S,3R,4R)-3-[6-Bromo-2-(2-methyl-4-morpholin-4-yl-phenyl)-3H-imidazo[4,5-b]pyridin-7-ylamino]-bicyclo[2.2.1]hept-5-ene-2-carboxylic acid amide], the IC50 in experiment [1] and in experiment [2] was less than 100 nM each time.
Consider `COc1cc(C(=O)N2CCOCC2)ccc1-c1nc2c(N[C@H]3[C@@H](C(N)=O)[C@@H]4C=C[C@H]3C4)c(Cl)cnc2[nH]1` [Compound LXIII, (1S,2S,3R,4R)-3-{6-Chloro-2-[2-methoxy-4-(morpholine-4-carbonyl)-phenyl]-3H-imidazo[4,5-b]pyridine-7-ylamino}-bicyclo[2.2.1]hept-5-ene-2-carboxylic acid amide], for which the IC50 in experiment [1] and in experiment [2] was less than 100 nM in each case.
Take `NC(=O)[C@@H]1[C@H](Nc2c(Br)cnc3[nH]c(-c4sc(N5CC[C@@H](O)C5)nc4Cl)nc23)[C@H]2C=C[C@@H]1C2` [Compound CLXXI, (1S,2S,3R,4R)-3-{6-Bromo-2-[4-chloro-2-((R)-3-hydroxy-pyrrolidin-1-yl)-thiazol-5-yl]-3H-imidazo[4,5-b]pyridin-7-ylamino}-bicyclo[2.2.1]hept-5-ene-2-carboxylic acid amide]: the IC50 in experiment [1] and in experiment [2] was less than 100 nM in each case.
With `NC(=O)[C@@H]1[C@H](Nc2c(Cl)cnc3[nH]c(-c4cccc(O)c4)nc23)[C@H]2C=C[C@@H]1C2` [Compound CCXXXIII, (1S,2S,3R,4R)-3-(6-chloro-2-(3-hydroxyphenyl)-3H-imidazo[4,5-b]pyridin-7-ylamino)pyridin[2.2.1]hept-5-ene-2-carboxamide], the IC50 was 100 to 1000 nM in experiment [1] and less than 100 nM in experiment [2].
Regarding `NC(=O)COc1cccc(-c2nc3c(N[C@H]4[C@@H](C(N)=O)[C@@H]5C=C[C@H]4C5)c(Cl)cnc3[nH]2)c1` [Compound CCXXXVIII, (1S,2S,3R,4R)-3-(2-(3-(2-amino-2-oxoethoxy)phenyl)-6-chloro-3H-imidazo[4,5-b]pyridin-7-ylamino)bicyclo[2.2.1]hept-5-ene-2-carboxamide], the values for the IC50 in experiment [1] and in experiment [2] were 100 to 1000 nM and less than 100 nM, respectively.
Consider `NC(=O)[C@@H]1[C@H](Nc2c(Cl)cnc3[nH]c(-c4ccc(N5CCOCC5)cc4Cl)nc23)[C@H]2C=C[C@@H]1C2` [Compound CXX, (1S,2S,3R,4R)-3-[6-Chloro-2-(2-chloro-4-morpholin-4-yl-phenyl)-3H-imidazo[4,5-b]pyridin-7-ylamino]-bicyclo[2.2.1]hept-5-ene-2-carboxylic acid amide], for which the IC50 in experiment [1] and in experiment [2] was less than 100 nM throughout.
With `COc1cc(CN2CCN(C)CC2)ccc1-c1nc2c(N[C@@H]3CCCC[C@H]3NS(C)(=O)=O)c(Cl)cnc2[nH]1` [Compound LXXI, N-((1R,2R)-2-{6-Chloro-2-[2-methoxy-4-(4-methyl-piperazin-1-ylmethyl)-phenyl]-3H-imidazo[4,5-b]pyridine-7-ylamino}-cyclohexyl)-methanesulfonamide], the IC50 in experiment [1] was less than 100 nM; in experiment [2] it was 1000 to 10000 nM.
As for `NC(=O)[C@@H]1[C@H](Nc2c(Cl)cnc3[nH]c(-c4cccc(OCC(=O)O)c4)nc23)[C@H]2C=C[C@@H]1C2` [Compound CCLXIII, 2-(3-(7-((1R,2R,3S,4S)-3-carbamoylbicyclo[2.2.1]hept-5-en-2-ylamino)-6-chloro-3H-imidazo[4,5-b]pyridin-2-yl)phenoxy)acetic acid], the IC50 in experiment [1] was 100 to 1000 nM; in experiment [2] it was less than 100 nM.
As to `CN(C)c1cccc(-c2nc3c(N[C@@H]4[C@H](C(N)=O)[C@H]5C=C[C@@H]4C5)c(Cl)cnc3[nH]2)c1` [Compound XXIV, (1R,2R,3S,4S)-3-[6-Chloro-2-(3-dimethylamino-phenyl)-3H-imidazo[4,5-b]pyridine-7-ylamino]-bicyclo[2.2.1]hept-5-ene-2-carboxylic acid amide], the IC50 in experiment [1] was more than 10000 nM; in experiment [2] it was 100 to 1000 nM.
With `NC(=O)[C@@H]1[C@H](Nc2c(Br)cnc3[nH]c(-c4ccc5c(c4)CCC4(CCNCC4)O5)nc23)[C@H]2C=C[C@@H]1C2` [Compound CXIV, (1S,2S,3R,4R)-3-[(6-bromo-2-spiro[chromane-2,4′-piperidine]-6-yl-3H-imidazo[4,5-b]pyridin-7-yl)amino]bicyclo[2.2.1]hept-5-ene-2-carboxamide], the IC50 in experiment [1] and in experiment [2] was less than 100 nM each time.
Take `Cn1cc(-c2nc3c(NC45CCC(C)(C(=O)C4)C5(C)C)c(Cl)cnc3[nH]2)cn1` (stereo not drawn) [Compound CXCIX, 4-(6-chloro-2-(1-methyl-1H-pyrazol-4-yl)-3H-imidazo[4,5-b]pyridin-7-ylamino)-1,7,7-trimethylbicyclo[2.2.1]heptan-2-one]: the IC50 in experiment [1] was 1000 to 10000 nM; in experiment [2], less than 100 nM.
Turning to `CN(C)C(=O)[C@@H]1[C@H](Nc2c(Cl)cnc3[nH]c(-c4sc(N5CCOCC5)nc4Cl)nc23)[C@H]2C=C[C@@H]1C2` [Compound CLXII, (1S,2S,3R,4R)-3-[6-Chloro-2-(4-chloro-2-morpholin-4-yl-thiazol-5-yl)-3H-imidazo[4,5-b]pyridin-7-ylamino]-bicyclo[2.2.1]hept-5-ene-2-carboxylic acid dimethylamide], the IC50 in experiment [1] and in experiment [2] was less than 100 nM in each case.
As to `NC(=O)[C@@H]1[C@H](Nc2c(Br)cnc3[nH]c(-c4cccc(F)c4)nc23)[C@H]2C=C[C@@H]1C2` [Compound CXXXII, (1S,2S,3R,4R)-3-[6-Bromo-2-(3-fluoro-phenyl)-3H-imidazo[4,5-b]pyridin-7-ylamino]-bicyclo[2.2.1]hept-5-ene-2-carboxylic acid amide], the results for the IC50 in experiment [1] and in experiment [2] were 100 to 1000 nM and less than 100 nM, respectively.
Consider `COc1ccccc1-c1nc2c(N[C@H]3[C@@H](C(N)=O)[C@@H]4C=C[C@H]3C4)c(Cl)cnc2[nH]1` [Compound IX, (1S,2S,3R,4R)-3-[6-Chloro-2-(2-methoxy-phenyl)-3H-imidazo[4,5-b]pyridine-7-ylamino]-bicyclo[2.2.1]hept-5-ene-2-carboxylic acid amide], for which, in experiment [2], the IC50 is less than 100 nM.
The same measure, in the same setting: for `Cn1cc(-c2nc3c(N[C@H]4[C@@H](C(N)=O)[C@@H]5C=C[C@H]4C5)c(Cl)cnc3[nH]2)cn1` [Compound VIII, (1S,2S,3R,4R)-3-[6-Chloro-2-(1-methyl-1H-pyrazol-4-yl)-3H-imidazo[4,5-b]pyridine-7-ylamino]-bicyclo[2.2.1]hept-5-ene-2-carboxylic acid amide] the value was less than 100 nM.
On to `COc1cc(N2CCN(C)CC2)ccc1-c1nc2c(N[C@H]3[C@@H](C(N)=O)[C@@H]4C=C[C@H]3C4)c(Cl)cnc2[nH]1` [Compound XXI, (1S,2S,3R,4R)-3-{6-Chloro-2-[2-methoxy-4-(4-methyl-piperazin-1-yl)-phenyl]-3H-imidazo[4,5-b]pyridin-7-ylamino}-bicyclo[2.2.1]hept-5-ene-2-carboxylic acid amide trifluoroacetic acid salt], for which, in experiment [2], the IC50 is less than 100 nM.
In the case of `NC(=O)[C@@H]1[C@H](Nc2c(Cl)cnc3[nH]c(-c4ccc(N5CCOCC5)cc4)nc23)[C@H]2C=C[C@@H]1C2` [Compound IV, (1S,2S,3R,4R)-3-[6-Chloro-2-(4-morpholin-4-yl-phenyl)-3H-imidazo[4,5-b]pyridine-7-ylamino]-bicyclo[2.2.1]hept-5-ene-2-carboxylic acid amide], in experiment [2], the IC50 was less than 100 nM.
